The text below walks through data of US7598377B2, “Inhibition of phosphoinositide 3-kinase β” (AstraZeneca AB, priority 2002, dated 2009).

Holding throughout (format): biochemical
Test [1] deals with PI 3-kinase immunoprecipitated from human platelets (p85/110 form). The experiment in a line: In vitro PI 3-kinase assay (Example 8), Platelet IP (p85). Particulars: read-out: Platelet IP (p85) IC50s. As for the experimental part: The effect of pyridine-substituted compounds on PI 3-kinase activity was determined using an in vitro PI 3-kinase assay. This assay was performed using PI 3-kinase immunoprecipitated from human platelets as the enzyme and PI as the substrate. The PI 3-kinase activity was quantitated by measuring the enzymatic incorporation of [^32P] into PI, forming PI([^32P]-3)P, as previously described (Susa et al., 1992, The Journal of Biological Chemistry 267(32):22951-22956.
Washed human platelets were lysed in Triton X-100 lysis buffer (10 mM Tris, pH 7.4, 1% Triton X-100, 2 mM EDTA, 1 mM PMSF) for 30 minutes. The Triton X-100 insoluble fraction was removed by centrifugation of the cell lysates at 15,000 g for 10 minutes. PI 3-kinase was immunoprecipitated by mixing 500 μg of the cell lysate with 1 μg of a rabbit anti-rat antibody against the p85/110 form of PI 3-kinase and 30 μl of 50% Protein A-sepharose beads for 2 hours at 4° C. The Protein A-sepharose-bound PI 3-kinase was isolated by pelleting the beads at 15,000 g for 5 seconds, and washing three times with ice-cold Triton X-100 lysis buffer followed by four washes with PI 3-kinase assay buffer (20 mM HEPES, pH 7.4, 1 mM EGTA, 5 mM MgCl2).
PI stored in CHCl3 was dried under N2, resuspended in the lipid buffer (50 mM HEPES, pH 7.2, 1 mM EDTA) at a final concentration of 330 μg/ml, and sonicated for 6 minutes on ice. PI([^32P]-3)P was generated by mixing the immunoprecipitated PI 3-kinase for 20 minutes with 40 μl of the PI, 10 μl of ATP (1 mM) and ^32P-r-ATP (0.5 μCi, 1 μCi/nmol), 10 μl of 10× kinase buffer, in a final assay volume of 100 μl adjusted with H2O. TGX-was preincubated with the PI 3-kinase for 5 minutes prior to the addition of ATP. The assay was terminated with 100 μl of 1 N HCl, and the PI([^32P]-3)P product extracted with 200 μl chloroform:methanol (1:1) and 500 μl 2 M KCl. The PI([^32P]-3)P in the chloroform phase was resolved by thin layer chromatography using a solvent system containing CHCl3:MeOH:HAC:H2O (43:38:5:7) (v:v:v:v), and visualized by autoradiography. The PI([^32P]-3)P spots were then scraped off from the TLC plates, deacylated with 1 ml methylamine:butanol:methanol (42:9:47) (v:v:v) for 4 hours at 53° C., and quantitated using a liquid scintillation counter (LKB 1209 RackBETA).

The target of test [2] is T1, P110 γ (Homo sapiens, UniProt P48736).
T1 construct: made in house
The experiment in a line: Isoform selective in vitro PI3K enzyme assay (Example 13), γ recombinant. Particulars: read-out: P110 γ IC50s. The method, then: In vitro enzyme assays were conducted as a primary screen to determine drug candidate isoform affinity and specificity. The α and β isoforms of the PI3K were immunoprecipitated from a platelet lysate, using an antibodies obtained from Santa Cruz Biotechnology, that recognized specific regions of p110α (sc-7174) and β (sc-603) isoforms. The γ isoform was produced as a recombinant protein in the Kinacia laboratories. […] Standard phosphorylation assays using phosphatidylinositol and ^32P were used to measure the enzyme activity in the immunoprecipates in the presence or absence of an inhibitor. Enzyme activity was determined over a range of inhibitor concentrations to establish an IC50 value.

Test [3] addresses T2, P110 δ (Homo sapiens, UniProt O00329).
T2 construct: The δ isoform was immunoprecipitated from THP-1 cells; endogenous in cells; host or cells: THP-1 cells (immunoprecipitated with antibody sc-7176)
Nature of the test: Isoform selective in vitro PI3K enzyme assay (Example 13), δ from THP-1 cells. The conditions noted are these: read-out: P110 δ IC50s. As for the experimental part: In vitro enzyme assays were conducted as a primary screen to determine drug candidate isoform affinity and specificity. […] The γ isoform was produced as a recombinant protein in the Kinacia laboratories. […] Standard phosphorylation assays using phosphatidylinositol and ^32P were used to measure the enzyme activity in the immunoprecipates in the presence or absence of an inhibitor. Enzyme activity was determined over a range of inhibitor concentrations to establish an IC50 value.

T2 sequence (O00329 whole entry, canonical isoform): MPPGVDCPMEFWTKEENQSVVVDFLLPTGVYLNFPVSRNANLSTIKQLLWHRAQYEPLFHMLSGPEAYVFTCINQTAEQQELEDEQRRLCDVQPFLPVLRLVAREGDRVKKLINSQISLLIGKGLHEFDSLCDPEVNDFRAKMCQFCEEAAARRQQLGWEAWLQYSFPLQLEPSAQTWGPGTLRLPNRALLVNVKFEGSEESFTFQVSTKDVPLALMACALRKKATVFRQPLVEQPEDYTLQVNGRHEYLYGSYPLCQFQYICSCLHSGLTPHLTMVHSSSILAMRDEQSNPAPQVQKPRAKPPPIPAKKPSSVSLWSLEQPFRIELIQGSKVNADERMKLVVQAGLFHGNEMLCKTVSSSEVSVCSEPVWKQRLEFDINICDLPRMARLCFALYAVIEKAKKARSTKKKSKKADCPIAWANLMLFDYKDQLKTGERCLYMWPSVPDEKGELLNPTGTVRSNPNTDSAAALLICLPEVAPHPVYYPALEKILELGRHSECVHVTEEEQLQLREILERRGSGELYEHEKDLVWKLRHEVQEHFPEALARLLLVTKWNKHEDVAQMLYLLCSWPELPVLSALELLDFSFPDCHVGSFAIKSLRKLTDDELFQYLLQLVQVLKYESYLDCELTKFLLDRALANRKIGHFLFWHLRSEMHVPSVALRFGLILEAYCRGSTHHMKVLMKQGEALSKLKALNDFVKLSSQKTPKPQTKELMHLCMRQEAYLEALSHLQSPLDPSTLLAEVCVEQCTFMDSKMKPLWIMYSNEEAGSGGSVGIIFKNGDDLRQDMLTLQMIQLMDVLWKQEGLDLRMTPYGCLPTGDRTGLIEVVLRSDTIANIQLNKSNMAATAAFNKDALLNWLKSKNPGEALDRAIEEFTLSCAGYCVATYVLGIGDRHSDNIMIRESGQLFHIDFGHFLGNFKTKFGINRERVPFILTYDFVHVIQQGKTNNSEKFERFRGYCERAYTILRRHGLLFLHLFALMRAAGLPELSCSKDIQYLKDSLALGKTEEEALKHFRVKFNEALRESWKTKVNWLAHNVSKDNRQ
T2 sequence (P27986 whole entry partner, canonical isoform): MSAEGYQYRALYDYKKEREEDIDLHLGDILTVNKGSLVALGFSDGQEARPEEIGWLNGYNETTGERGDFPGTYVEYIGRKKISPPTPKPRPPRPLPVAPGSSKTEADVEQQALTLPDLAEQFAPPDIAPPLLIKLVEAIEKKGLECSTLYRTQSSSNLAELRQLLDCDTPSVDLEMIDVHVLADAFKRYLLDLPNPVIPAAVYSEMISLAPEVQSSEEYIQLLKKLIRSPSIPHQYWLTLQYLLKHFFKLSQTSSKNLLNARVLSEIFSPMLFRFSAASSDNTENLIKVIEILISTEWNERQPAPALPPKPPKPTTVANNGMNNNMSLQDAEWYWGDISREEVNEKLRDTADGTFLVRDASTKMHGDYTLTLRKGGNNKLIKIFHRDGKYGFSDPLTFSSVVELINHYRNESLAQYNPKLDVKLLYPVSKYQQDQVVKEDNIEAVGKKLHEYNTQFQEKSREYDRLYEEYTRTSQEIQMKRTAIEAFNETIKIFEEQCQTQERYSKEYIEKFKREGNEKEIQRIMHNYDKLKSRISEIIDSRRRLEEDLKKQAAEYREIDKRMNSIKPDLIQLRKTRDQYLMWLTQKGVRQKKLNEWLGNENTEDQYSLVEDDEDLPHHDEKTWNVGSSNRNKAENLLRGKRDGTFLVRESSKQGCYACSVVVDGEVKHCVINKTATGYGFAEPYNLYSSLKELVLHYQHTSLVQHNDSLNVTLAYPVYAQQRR
T1 sequence (P48736 whole entry, species assumed): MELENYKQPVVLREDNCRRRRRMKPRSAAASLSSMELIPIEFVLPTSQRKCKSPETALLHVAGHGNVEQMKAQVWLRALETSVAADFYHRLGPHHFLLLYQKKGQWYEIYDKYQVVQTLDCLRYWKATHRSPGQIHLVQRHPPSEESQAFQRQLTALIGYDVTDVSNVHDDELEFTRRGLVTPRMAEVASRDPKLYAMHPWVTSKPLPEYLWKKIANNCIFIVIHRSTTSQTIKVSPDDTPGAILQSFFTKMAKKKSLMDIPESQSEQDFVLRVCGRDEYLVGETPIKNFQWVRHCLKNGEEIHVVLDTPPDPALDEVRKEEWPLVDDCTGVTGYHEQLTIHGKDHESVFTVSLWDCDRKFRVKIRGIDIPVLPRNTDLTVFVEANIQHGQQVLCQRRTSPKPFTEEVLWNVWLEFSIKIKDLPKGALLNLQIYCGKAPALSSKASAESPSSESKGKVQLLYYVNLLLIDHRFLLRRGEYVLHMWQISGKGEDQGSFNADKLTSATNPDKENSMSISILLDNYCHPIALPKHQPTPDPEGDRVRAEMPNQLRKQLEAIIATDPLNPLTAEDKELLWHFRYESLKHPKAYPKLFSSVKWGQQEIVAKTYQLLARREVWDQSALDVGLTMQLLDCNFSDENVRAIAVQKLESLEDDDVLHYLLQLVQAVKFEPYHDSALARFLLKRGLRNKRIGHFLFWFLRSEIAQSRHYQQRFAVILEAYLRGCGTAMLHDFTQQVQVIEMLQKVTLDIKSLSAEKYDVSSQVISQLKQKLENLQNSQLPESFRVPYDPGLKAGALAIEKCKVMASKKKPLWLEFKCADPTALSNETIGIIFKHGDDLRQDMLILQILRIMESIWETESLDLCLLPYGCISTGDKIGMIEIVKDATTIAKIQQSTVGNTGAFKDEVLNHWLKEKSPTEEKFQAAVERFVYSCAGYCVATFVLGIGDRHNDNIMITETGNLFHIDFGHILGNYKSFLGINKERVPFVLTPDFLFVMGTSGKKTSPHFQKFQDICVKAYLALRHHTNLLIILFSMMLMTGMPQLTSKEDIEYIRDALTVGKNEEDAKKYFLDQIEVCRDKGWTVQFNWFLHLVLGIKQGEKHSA

With “6-methyl-8-(2-acetamido)phenylaminomethyl-2-(4-pyridinyl)-4H-benzopyran-1-one [KN326]”, the IC50 was found to be 0.5 µM in test [1], 5 µM in test [2] and 1 µM in test [3].

Regarding “8-Naphthyl-2-(4-pyridinyl)-4(1H)-quinolinone [KN350]”, the IC50 in test [1] is 0.5 µM.

With `Cc1cc(C(C)Nc2ccc(F)cc2C)c2oc(-c3ccncc3)cc(=O)c2c1` (stereo not drawn) [KN303, 8-1-(4-fluoro-2-methylphenylamino)ethyl-6-methyl-2-(4-pyridinyl)-4H-1-benzopyran-4-one], the IC50 came to 0.01 µM in test [1], 1.5 µM in test [2] and 0.5 µM in test [3].

Consider `Cc1cc(C(C)Nc2cccc(C)n2)c2oc(-c3ccncc3)cc(=O)c2c1` (stereo not drawn) [KN310, 8-1-(6-methylpyridin-2-ylamino)ethyl-6-methyl-2-(4-pyridinyl)-4H-1-benzopyran-4-one], for which the IC50 turned out to be 0.1 µM in test [1], 7.5 µM in test [2] and 1 µM in test [3].

As for `Cc1cc(CNc2ccccc2)c2oc(-c3ccncc3)cc(=O)c2c1` [KN312, 6-methyl-8-phenylaminomethyl-2-(4-pyridinyl)-4H-benzopyran-1-one], the IC50 in test [1] worked out at 0.05 µM.

Consider `Cc1cc(COc2ccccc2)c2oc(-c3ccncc3)cc(=O)c2c1` [KN313, 6-methyl-8-phenoxymethyl-2-(4-pyridinyl)-4H-benzopyran-1-one], for which the IC50 in test [1] was found to be 0.1 µM; in test [3], 5 µM.

For the molecule `Cc1cc(CNc2ccccn2)c2oc(-c3ccncc3)cc(=O)c2c1` [KN315, 6-methyl-8-(2-pyridinyl)aminomethyl-2-(4-pyridinyl)-4H-benzopyran-1-one], the IC50 in test [1] is more than 0.1 µM; in test [2] it was 5 µM; in test [3], 5 µM.

With `O=c1cc(-c2ccncc2)nc2c(NCCc3ccccc3)cccn12` [KN316, 9-(2-phenethyl)amino-2-(4-pyridinyl)-4H-Pyrido[1,2-a]pyrimidin-4-one], the IC50 in test [1] and in test [3] was 1 µM each time.

For `Cc1cc(C(C)Oc2ccccc2)c2oc(-c3ccncc3)cc(=O)c2c1` (stereo not drawn) [KN317, 6-methyl-8-1-(phenoxy)ethyl-2-(4-pyridinyl)-4H-benzopyran-1-one], the figures for the IC50 in test [1] and in test [3] were more than 0.1 µM and 5 µM, respectively.

Consider `O=c1cc(-c2ccncc2)[nH]c2c(Oc3ccccc3)cccc12` [KN319, 8-phenoxy-2-(4-pyridinyl)-4-(1H)-quinolinone], for which the IC50 was found to be 0.5 µM in test [1], 20 µM in test [2] and 0.3 µM in test [3].

`Cc1cc(C(C)Nc2cccc(C(F)(F)F)c2)c2oc(-c3ccncc3)cc(=O)c2c1` (stereo not drawn) [KN322, 8-1-(3-trifluoromethylphenylamino)ethyl-6-methyl-2-(4-pyridinyl)-4H-1-benzopyran-4-one]: the IC50 in test [1] and in test [3] was 1 µM each time.

As to `Cc1cc(C(C)n2c(C(F)(F)F)nc3ccccc32)c2oc(-c3ccncc3)cc(=O)c2c1` (stereo not drawn) [KN328, 6-methyl-8-1-(2-trifluoromethyl-benzimidazol-1-yl)-ethyl-2-(4-pyridinyl)-4H-benzopyran-1-one], in test [1], the IC50 turned out to be 0.05 µM.

`O=c1cc(-c2ccncc2)oc2c(OCc3ccccc3)cccc12` [KN335, 8-Benzyloxy-2-(4-pyridinyl)-4H-benzopyran-1-one]: the IC50 in test [1] and in test [3] was 1 µM each time.

As to `O=c1cc(-c2ccncc2)oc2c(NCc3ccccc3)cccc12` [KN336], the IC50 in test [1] amounted to 1 µM; in test [2], 10 µM; in test [3], 0.2 µM.

On to `Cc1cc(F)ccc1Oc1cccc2c(=O)cc(-c3ccncc3)[nH]c12` [KN337, 8-(4-Fluoro-2-methylphenoxy)-2-(4-pyridinyl)-4(1H)-quinolinone], for which the IC50 in test [1] is 0.2 µM; in test [2], more than 10 µM; in test [3], 0.2 µM.

Turning to `Cc1cc(C(C)Nc2ccccc2)c2oc(-c3cc(C)nc(Cl)c3)cc(=O)c2c1` (stereo not drawn) [KN340, 8-1-(phenylamino)ethyl-6-methyl-2-(2-chloro-6-methyl-4-pyridinyl)-4H-1-benzopyran-4-one], the IC50 in test [2] and in test [3] was more than 10 µM in each case.

`O=c1cc(-c2ccncc2)oc2c(Nc3ccccc3)cccc12` [KN341]: the IC50 was found to be 0.5 µM in test [1], 5 µM in test [2] and 0.05 µM in test [3].

For the molecule `O=c1cc(-c2ccncc2)oc2cc(OCc3ccccc3)ccc12` [KN342, 7-Benzyloxy-2-(4-pyridinyl)-4H-benzopyran-1-one], the IC50 in test [2] and in test [3] was more than 10 µM each time.

Consider `COc1cccc2c(=O)cc(-c3ccncc3)[nH]c12` [KN344, 8-methoxy-2-(4-pyridinyl)-4(1H)-quinolinone], for which the IC50 is 5 µM in test [1] and more than 10 µM in test [2].

On to `O=c1cc(-c2ccncc2)[nH]c2c(-c3ccccc3)cccc12` [KN345, 8-phenyl-2-(4-pyridinyl)-4(1H)-quinoline], for which the results for the IC50 in test [1] and in test [2] were 5 µM and more than 10 µM, respectively.

Turning to `O=c1cc(-c2ccncc2)[nH]c2c(Cc3ccccc3)cccc12` [KN346, 8-Benzyl-2-(4-pyridinyl)-4(1H)-quinolinone], the values for the IC50 in test [1], in test [2] and in test [3] were more than 10 µM, more than 10 µM and 10 µM, respectively.

For the molecule `Cc1cccn2c(=O)cc(-c3ccncc3)nc12` [KN347, 9-methyl-2-(4-pyridinyl)-4H-Pyrido[1,2-a]pyrimidin-4-one], the IC50 in test [1], in test [2] and in test [3] was more than 10 µM each time.

In the case of `O=c1cc(-c2ccncc2)nc2c(Cc3ccccc3)cccn12` [KN349, 9-Benzyl-2-(4-pyridinyl)-4H-Pyrido[1,2-a]pyrimidin-4-one], the values for the IC50 in test [1], in test [2] and in test [3] were 0.5 µM, more than 10 µM and 2 µM, respectively.

For `O=c1cc(-c2ccncc2)oc2c(Nc3cccc(F)c3)cccc12` [KN351, 8-(3-Fluorophenylamino)-2-(4-pyridinyl)-4H-benzopyran-1-one], the IC50 in test [1] worked out at 0.5 µM.

As for `Cc1cc(-c2ccccc2)c2oc(-c3ccncc3)cc(=O)c2c1` [TGX258, 8-Phenyl-6-methyl-2-(4-pyridinyl)-4H-benzopyran-1-one], the IC50 in test [2] is more than 20 µM; in test [3] it was more than 10 µM.
